Source: US20250017931A1, “METHODS OF PERSONALIZING CANCER TREATMENT” (PROCESSA PHARMACEUTICALS, INC.,, priority 2023, published 2025)
Like-named read-outs stand apart in the source and are kept apart here. One block for each compound: values may come before it.

Tests used:
[1] = human, in vivo
Description: 40 mg of PCS6422 is administered to the subjects on day 1. Subsequently, 75 mg of capecitabine is administered to the subjects daily (Cohort 1) or twice daily (Cohort 2A, morning and night) on days 2-8 followed by 6 days of a drug-free period (days 9-14).
Blood samples for pharmacokinetic (PK) analysis of PCS6422 and its major metabolite, 5-acetyluracil, are drawn in cycle 1 on day 1 at 0 (pre-dose), 1, 2, 3, 5, 7, 9, and 24 hours post PCS6422 administration. On the first day of capecitabine treatment (Cycle 1, day 2), blood samples for PK analysis of capecitabine, 5-fluorouracil (5-FU), and the quantifiable main metabolites, α-fluoro-β-alanine (FBAL), 5′-deoxy-5-fluorocytidine (5′-DFCR), and doxifluridine (5′-DFUR) are obtained at the following time points relative to administration of the first dose of capecitabine (dose 1): 0 (pre-dose/trough), 0.5, 1, 2, 3, 5, 7, and at 9 hours. In cycle 1 on Day 8, blood samples are obtained at the following time points relative to administration of the dose of capecitabine (dose 7 of cycle 1): 0 (pre-dose/trough), 0.5, 1, 2, 3, 5, 7, 9, 24, 30, and 48 hours post-capecitabine dose. A capecitabine blood sample is also drawn on cycle 2, day 1, prior to the dose of PCS6422.
Blood samples are also drawn for the analysis of DPD activity using uracil and dihydrouracil concentrations at screening and at the following times during Cycle 1: Day 1, Day 2, Day 8, Day 9, and Day 10. A blood sample is also drawn on Cycle 2, day 1 prior to the dose of PCS6422. All blood samples for analysis of uracil and dihydrouracil concentrations are taken prior a subject's meal, if possible. Actual sample time is recorded. Validated analytical methods are used to determine the concentrations of PCS6422, 5-acetyluracil, capecitabine, 5-FU, FBAL, 5′-DFCR, and 5′-DFUR, uracil, and/or dihydrouracil in plasma.

[2] = human, in vivo; remark: listed apart in the source
Description: 40 mg of PCS6422 was administered to the subjects on both of day 1 and day 5 (Cohort 2B) or on only day 1 (Cohort 2D). Subsequently, 75 mg of capecitabine was administered to the subjects twice daily (morning and night) on days 2-8 followed by 6 days of a drug-free period (days 9-14).
Blood samples for PK analysis of PCS6422 and its major metabolite, 5-acetyluracil in Cycle 1 on Day 1 was drawn at 0 (pre-dose), 1, 2, 3, 5, 7, 9 and 24 hours. The 24-hour post dose sample was collected prior to capecitabine administration on Day 2.
On the first day of capecitabine treatment (Cycle 1, Day 2), blood samples for PK analysis of capecitabine, 5-fluorouracil (5-FU), and the quantifiable main metabolites, α-fluoro-β-alanine (FBAL), 5′-deoxy-5-fluorocytidine (5′-DFCR), and doxifluridine (5′-DFUR) were obtained at the following time points relative to administration of the first dose of capecitabine […]: 0 (pre-dose), 0.5, 1, 2, 3, 5, 7, and 9 hours. In Cycle 1 on Day 8, blood samples were obtained at the following time points relative to administration of the morning dose of capecitabine at time 0 (pre-dose/trough), 0.5, 1, 2, 3, 5, 7, and 9 hours.
Additional PK blood samples for capecitabine and its main metabolites were obtained prior to administration of the morning dose of capecitabine on Days 3, 4, 5, 6, 7, 9. Validated analytical methods were used to determine the concentrations of PCS6422, 5-aceyluracil, capecitabine, 5-FU, FBAL, 5′-DFCR, and 5′-DFUR in plasma.

[3] = target: T1, dihydropyrimidine dehydrogenase (DPD) (Homo sapiens, UniProt Q12882); details: cited from earlier work
T1 sequence (Q12882 4-1025): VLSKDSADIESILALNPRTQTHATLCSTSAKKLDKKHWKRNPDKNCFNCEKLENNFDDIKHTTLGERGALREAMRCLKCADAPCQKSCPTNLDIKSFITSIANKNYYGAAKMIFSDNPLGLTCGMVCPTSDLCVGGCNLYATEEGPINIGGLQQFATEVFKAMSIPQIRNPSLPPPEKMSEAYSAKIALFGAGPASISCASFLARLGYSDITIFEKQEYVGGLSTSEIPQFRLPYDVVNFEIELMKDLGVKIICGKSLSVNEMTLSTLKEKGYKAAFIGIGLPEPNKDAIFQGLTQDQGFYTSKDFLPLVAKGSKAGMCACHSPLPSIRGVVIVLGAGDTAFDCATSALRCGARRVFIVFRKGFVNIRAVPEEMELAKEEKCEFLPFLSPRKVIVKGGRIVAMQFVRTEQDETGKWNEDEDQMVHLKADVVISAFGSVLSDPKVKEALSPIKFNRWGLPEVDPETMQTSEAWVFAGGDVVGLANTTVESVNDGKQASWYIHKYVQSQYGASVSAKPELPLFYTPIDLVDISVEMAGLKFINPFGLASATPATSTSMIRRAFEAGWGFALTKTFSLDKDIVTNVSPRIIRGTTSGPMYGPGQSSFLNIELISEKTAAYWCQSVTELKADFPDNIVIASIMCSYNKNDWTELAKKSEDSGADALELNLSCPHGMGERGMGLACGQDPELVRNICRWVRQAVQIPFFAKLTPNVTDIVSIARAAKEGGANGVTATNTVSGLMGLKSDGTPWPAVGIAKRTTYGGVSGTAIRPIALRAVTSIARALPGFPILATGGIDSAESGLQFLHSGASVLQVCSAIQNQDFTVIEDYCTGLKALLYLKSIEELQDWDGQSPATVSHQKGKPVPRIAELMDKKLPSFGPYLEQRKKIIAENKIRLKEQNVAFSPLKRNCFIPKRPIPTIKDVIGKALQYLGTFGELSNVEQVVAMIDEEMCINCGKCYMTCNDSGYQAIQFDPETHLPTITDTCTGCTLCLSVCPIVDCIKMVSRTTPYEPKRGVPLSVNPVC

[4] = laboratory animals; cited from earlier work
[5] = target: T1, dihydropyrimidine dehydrogenase (DPD); details: background statement; cited from earlier work

5FU D 8 0-9 hrs Cp Low [1]: <2 ng/mL
5FU D 8 Cmin [1]: <2 ng/mL
5FU D 9 [1]: <2 ng/mL
highest 5-FU plasma concentration (Cp high) during 0-9 hours following capecitabine dosing [1]: 309 to 466 ng/mL
lowest 5-FU plasma concentration (Cp low) during 0-9 hours following capecitabine dosing [1]: 8.1 to 164 ng/mL
highest 5-FU plasma concentration (Cp high) during 0-9 hours following capecitabine dosing [2]: 197 to 746 ng/mL
lowest 5-FU plasma concentration (Cp low) during 0-9 hours following capecitabine dosing [2]: 6.4 to 283 ng/mL
5FU D 9 ([2]; 168 h): <2 ng/mL
SMILES: O=c1[nH]cc(F)c(=O)[nH]1 [5-FU, 5-fluorouracil]
fraction of administered 5-FU catabolized by DPD ([3]; background statement): over 80%
5-FU elimination half-life ([3]; with DPD inhibited by PCS6422): several hours
5-FU elimination half-life ([3]; without PCS6422): 10 to 20 min

SMILES: NCC(F)C(=O)O (stereo not drawn) [FBAL, α-fluoro-β-alanine]
FBAL Cp high on Day 2 (0-9 hours post capecitabine dose) [1]: 15 to 26 ng/mL
FBAL Cp low on Day 2 (0-9 hours post capecitabine dose) [1]: 15 to 22.6 ng/mL
FBAL Cp high on Day 2 (0-9 hours post capecitabine dose) [2]: 15 to 33.1 ng/mL
effect on anti-tumor activity of 5-FU [4]: decrease the anti-tumor activity of 5-FU

SMILES: C#Cc1c[nH]c(=O)[nH]c1=O [PCS6422, 5-ethynyl-1H-pyrimidine-2,4-dione]
inactivation of DPD [5]: potent and irreversible inactivator
